Reference: US8067445B2, “N,N-disubstituted aminoalkylbiphenyl antagonists of prostaglandin D2 receptors” (Panmira Pharmaceuticals, LLC, priority 2008, dated 2011)

What was measured:
human DP2 receptor = target: T1, human DP2 receptor (Homo sapiens, UniProt Q9Y5Y4); assay: DP2/CRTH2 radioligand binding assay ([3H]PGD2); conditions: [3H]PGD2 binding, membranes of HEK293 cells expressing human DP2; read-out: hDP2
T1 construct: expressed in transfected cells
T1 sequence (Q9Y5Y4 1-395): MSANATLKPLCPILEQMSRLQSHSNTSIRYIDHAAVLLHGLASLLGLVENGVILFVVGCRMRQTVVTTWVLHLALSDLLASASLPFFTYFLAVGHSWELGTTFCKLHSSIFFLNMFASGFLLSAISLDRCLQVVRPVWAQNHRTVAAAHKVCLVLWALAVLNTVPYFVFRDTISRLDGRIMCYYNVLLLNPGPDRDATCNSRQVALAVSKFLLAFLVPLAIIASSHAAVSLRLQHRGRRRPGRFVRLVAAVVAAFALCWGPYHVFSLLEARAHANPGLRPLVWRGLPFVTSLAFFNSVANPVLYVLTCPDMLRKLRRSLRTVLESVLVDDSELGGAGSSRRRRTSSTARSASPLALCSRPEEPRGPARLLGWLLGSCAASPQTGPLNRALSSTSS
How it was run: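 Membranes from HEK293 cells stably expressing recombinant human DP2 incubated 60 min at room temperature with 1 nM [3H]PGD2 and compound in pH 7.4 Hepes/MnCl2/EDTA buffer, ± 0.2% human serum albumin. Bound radioactivity measured after filtration; non-specific binding defined with 10 μM PGD2. IC50 from titration curves.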

[1] = target: T2, recombinant human CRTH2 receptor (Homo sapiens, UniProt Q9Y5Y4); assay: GTPγS binding assay; type: biochemical; conditions: +HSA (0.2% human serum albumin), 80 nM PGD2, CHO cell membranes; read-out: hDP2 GTPγS μM (+HSA)
T2 construct: expressed in transfected cells
T2 sequence (Q9Y5Y4 1-395): T1 sequence (Q9Y5Y4 1-395)
Protocol: The ability of a compound to inhibit binding of GTP to DP2 is assessed via a membrane GTPγS assay. CHO cells stably expressing the recombinant human CRTH2 receptor are resuspended in 10 mM Hepes, 7.4 containing 1 mM DTT, lysed and centrifuged at 75,000×g to pellet the membranes. The membranes are resuspended in 10 mM Hepes, 7.4 containing 1 mM DTT and 10% glycerol. […] The reactions are terminated by rapid filtration through Whatman GF/B glass fibre filter plates. The filter plates are washed 3 times with 1 ml cold Assay Buffer and dried. Scintillant is then added to the plates and the radioactivity retained on the filters is determined on a Packard TopCount (Perkin Elmer). Specific binding is determined as total radioactive binding minus non-specific binding in the absence of the ligand (80 nM PGD2). IC50s were determined using Graphpad prism analysis of drug titration curves.

human DP1 receptor = target: T3, human DP1 receptor (Homo sapiens, UniProt Q13258); assay: DP1 radioligand binding assay ([3H]BWA868C, platelet membranes); conditions: [3H]BWA868C binding, human platelet membranes; read-out: hDP1
T3 construct: tissue Biological Specialty Corporation; host or cells: human platelet membranes
T3 sequence (Q13258 1-359): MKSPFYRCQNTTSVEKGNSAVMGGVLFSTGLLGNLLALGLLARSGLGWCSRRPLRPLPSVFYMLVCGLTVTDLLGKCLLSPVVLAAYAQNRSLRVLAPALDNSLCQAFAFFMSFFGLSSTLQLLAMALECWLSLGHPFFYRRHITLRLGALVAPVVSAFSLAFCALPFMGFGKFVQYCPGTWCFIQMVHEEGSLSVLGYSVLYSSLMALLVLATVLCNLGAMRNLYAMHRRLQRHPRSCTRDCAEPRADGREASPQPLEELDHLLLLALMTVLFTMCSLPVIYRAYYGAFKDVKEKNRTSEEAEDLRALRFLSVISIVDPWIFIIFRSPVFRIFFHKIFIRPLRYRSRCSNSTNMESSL
How it was run: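 Human platelet membranes (20 μg protein/well) incubated 60 min at room temperature with 2 nM [3H]BWA868C and compound in 50 mM Hepes, 10 mM MnCl2, 1 mM EDTA, pH 7.4, ± 0.2% human serum albumin. Bound radioactivity measured after filtration; nonspecific binding defined with 10 μM BWA868C; IC50 from titration curves.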

SMILES | IC50 (human DP2 receptor) [nM] | IC50 [1] [µM] | IC50 (human DP1 receptor) [nM]
COc1ccc(CC(=O)O)cc1-c1ccc(C(F)(F)F)cc1CN(CC(C)(C)C)C(C)=O [Compound 1-3, (2′-{[Acetyl-(2,2-dimethyl-propyl)-amino]-methyl}-6-methoxy-4′-trifluoromethyl-biphenyl-3-yl)-acetic acid] | < 300 | < 0.3 | 1000 to 30000
COc1ccc(CC(=O)O)cc1-c1ccc(C(F)(F)F)cc1CN(CCO)C(C)=O [Compound 1-5, (2′-{[Acetyl-(2-hydroxy-ethyl)-amino]-methyl}-6-methoxy-4′-trifluoromethyl-biphenyl-3-yl)-acetic acid] | < 300 | 0.3 to 1 | 1000 to 30000
COCCN(Cc1cc(C(F)(F)F)ccc1-c1cc(CC(=O)O)ccc1OC)C(C)=O [Compound 1-6, (2′-{[Acetyl-(2-methoxy-ethyl)-amino]-methyl}-6-methoxy-4′-trifluoromethyl-biphenyl-3-yl)-acetic acid] | < 300 | < 0.3 | 1000 to 30000
COc1ccc(CC(=O)O)cc1-c1ccc(C(F)(F)F)cc1CN(CCN(C)C)C(C)=O [Compound 1-7, (2′-{[Acetyl-(2-dimethylamino-ethyl)-amino]-methyl}-6-methoxy-4′-trifluoromethyl-biphenyl-3-yl)-acetic acid] | 300 to 1000 | 0.3 to 1 | 1000 to 30000
COc1ccc(CC(=O)O)cc1-c1ccc(C(F)(F)F)cc1CN(CC(=O)O)C(C)=O [Compound 1-8, {2′-[(Acetyl-carboxymethyl-amino)-methyl]-6-methoxy-4′-trifluoromethyl-biphenyl-3-yl}-acetic acid] | 1000 to 30000 | 1 to 30 | 1000 to 30000
COc1ccc(CC(=O)O)cc1-c1ccc(C(F)(F)F)cc1CN(CC(N)=O)C(C)=O [Compound 1-9, {2′-[(Acetyl-carbamoylmethyl-amino)-methyl]-6-methoxy-4′-trifluoromethyl-biphenyl-3-yl}-acetic acid] | 300 to 1000 | 0.3 to 1 | 1000 to 30000
COc1ccc(CC(=O)O)cc1-c1ccc(C(F)(F)F)cc1CN(C(C)=O)[C@@H]1CCc2ccccc21 [Compound 1-13, {2′-[((R)-Acetyl-indan-1-yl-amino)-methyl]-6-methoxy-4′-trifluoromethyl-biphenyl-3-yl}-acetic acid] | 300 to 1000 | 0.3 to 1 | < 300
COc1ccc(CC(=O)O)cc1-c1ccc(C(F)(F)F)cc1CN(C(C)=O)[C@H]1CCc2ccccc21 [Compound 1-14, {2′-[((S)-Acetyl-indan-1-yl-amino)-methyl]-6-methoxy-4′-trifluoromethyl-biphenyl-3-yl}-acetic acid] | < 300 | < 0.3 | 1000 to 30000
COc1ccc(CC(=O)O)cc1-c1ccc(C(F)(F)F)cc1CN(C(C)=O)C1Cc2ccccc2C1 [Compound 1-17, {2′-[(Acetyl-indan-2-yl-amino)-methyl]-6-methoxy-4′-trifluoromethyl-biphenyl-3-yl}-acetic acid] | < 300 | < 0.3 | 1000 to 30000
COc1ccc(CC(=O)O)cc1-c1ccc(C(F)(F)F)cc1CN(C(C)=O)c1ccccc1 [Compound 1-18, {2′-[(Acetyl-phenyl-amino)-methyl]-6-methoxy-4′-trifluoromethyl-biphenyl-3-yl}-acetic acid] | 300 to 1000 | 0.3 to 1 | 1000 to 30000
COc1ccc(CC(=O)O)cc1-c1ccc(C(F)(F)F)cc1CN(Cc1ccccc1)C(C)=O [Compound 1-19, {2′-[(Acetyl-benzyl-amino)-methyl]-6-methoxy-4′-trifluoromethyl-biphenyl-3-yl}-acetic acid] | < 300 | < 0.3 | 1000 to 30000
COc1ccc(CC(=O)O)cc1-c1ccc(C(F)(F)F)cc1CN(CCc1ccccc1)C(C)=O [Compound 1-20, {2′-[(Acetyl-phenethyl-amino)-methyl]-6-methoxy-4′-trifluoromethyl-biphenyl-3-yl}-acetic acid] | < 300 | < 0.3 | 1000 to 30000
CCN(Cc1cc(C(F)(F)F)ccc1-c1cc(C(C)C(=O)O)ccc1OC)C(C)=O (stereo not drawn) [Compound 1-21, 2-{2′-[(Acetyl-ethyl-amino)-methyl]-6-methoxy-4′-trifluoromethyl-biphenyl-3-yl}-propionic acid] | < 300 | < 0.3 | 1000 to 30000
COC(=O)N(Cc1ccccc1)Cc1cc(C(F)(F)F)ccc1-c1cc(CC(=O)O)ccc1OC [Compound 1-24, {2′-[(Benzyl-methoxycarbonyl-amino)-methyl]-6-methoxy-4′-trifluoromethyl-biphenyl-3-yl}-acetic acid] | < 300 | < 0.3 | 1000 to 30000
COC(=O)N(CCc1ccccc1)Cc1cc(C(F)(F)F)ccc1-c1cc(CC(=O)O)ccc1OC [Compound 1-25, {6-Methoxy-2′-[(methoxycarbonyl-phenethyl-amino)-methyl]-4′-trifluoromethyl-biphenyl-3-yl}-acetic acid] | < 300 | < 0.3 | 1000 to 30000
COC(=O)N(Cc1cc(C(F)(F)F)ccc1-c1cc(CC(=O)O)ccc1OC)C1Cc2ccccc2C1 [Compound 1-26, {2′-[(Indan-2-yl-methoxycarbonyl-amino)-methyl]-6-methoxy-4′-trifluoromethyl-biphenyl-3-yl}-acetic acid] | < 300 | < 0.3 | 1000 to 30000
CCN(Cc1cc(C(F)(F)F)ccc1-c1cc(C(C)C(=O)O)ccc1OC)C(=O)NCc1ccccc1 (stereo not drawn) [Compound 1-222, 2-[2′-(3-Benzyl-1-ethyl-ureidomethyl)-6-methoxy-4′-trifluoromethyl-biphenyl-3-yl]-propionic acid] | < 300 | < 0.3 | 
CCN(Cc1cc(C(F)(F)F)ccc1-c1cc([C@@H](C)C(=O)O)ccc1OC)C(=O)C1CC1 [Compound 1-224, (R)-2-{2′-[(Cyclopropanecarbonyl-ethyl-amino)-methyl]-6-methoxy-4′-trifluoromethyl-biphenyl-3-yl}-propionic acid] | < 300 | < 0.3 | 
CCOc1ccc(-c2ccc(-c3cc(CC(=O)O)ccc3OC)c(CN(CC)C(=O)NCc3ccccc3)c2)cn1 [Compound 1-228, [2′-(3-Benzyl-1-ethyl-ureidomethyl)-4′-(6-ethoxy-pyridin-3-yl)-6-methoxy-biphenyl-3-yl]-acetic acid] | < 300 | < 0.3 | 
CCN(Cc1cc(-c2cnn(C)c2)ccc1-c1cc(CC(=O)O)ccc1OC)C(=O)C1CC1 [Compound 1-233, [2′-[(Cyclopropanecarbonyl-ethyl-amino)-methyl]-6-methoxy-4′-(1-methyl-1H-pyrazol-4-yl)-biphenyl-3-yl]-acetic acid] | < 300 | < 0.3 | 
CCN(Cc1cc(-c2cnn(C)c2)ccc1-c1cc(CC(=O)O)ccc1OC)C(=O)NCc1ccccc1 [Compound 1-234, [2′-(3-Benzyl-1-ethyl-ureidomethyl)-6-methoxy-4′-(1-methyl-1H-pyrazol-4-yl)-biphenyl-3-yl]-acetic acid] | < 300 | < 0.3 | 
CCN(Cc1cc(C(F)(F)F)ccc1-c1cc([C@@H](C)C(=O)O)cc(C(F)(F)F)c1)C(=O)C1CC1 [Compound 1-237, (R)-2-{2′-[(Cyclopropanecarbonyl-ethyl-amino)-methyl]-5,4′-bis-trifluoromethyl-biphenyl-3-yl}-propionic acid] | < 300 | < 0.3 | 
